In brackets after ≈: the same amount, converted by molar mass.
Legend:
Staphylococcus aureus [1] = experiment: Antibacterial activity against methicillin-resistant Staphylococcus aureus N315 after 24 hrs by micro broth dilution method; assay type: functional; settings: N315, 24 h
Staphylococcus aureus [2] = experiment: Antibacterial activity against Staphylococcus aureus ATCC 25923 after 24 hrs by micro broth dilution method; assay type: functional; settings: ATCC 25923, 24 h
Bacillus subtilis = experiment: Antibacterial activity against Bacillus subtilis after 24 hrs by micro broth dilution method; assay type: functional
Micrococcus luteus = experiment: Antibacterial activity against Micrococcus luteus ATCC 4698 after 24 hrs by micro broth dilution method; assay type: functional; settings: NCTC 2665, 24 h
Escherichia coli [3] = experiment: Antibacterial activity against Escherichia coli DH52 after 24 hrs by micro broth dilution method; assay type: functional; settings: DH52, 24 h
Escherichia coli [4] = experiment: Antibacterial activity against Escherichia coli JM109 after 24 hrs by micro broth dilution method; assay type: functional; settings: JM109, 24 h
Shigella dysenteriae = experiment: Antibacterial activity against Shigella dysenteriae after 24 hrs by micro broth dilution method; assay type: functional
Pseudomonas aeruginosa = experiment: Antibacterial activity against Pseudomonas aeruginosa after 24 hrs by micro broth dilution method; assay type: functional
Bacillus = experiment: Antibacterial activity against Bacillus proteus ATCC 13315 after 24 hrs by micro broth dilution method; assay type: functional; settings: ATCC 13315, 24 h
Salmonella typhi = experiment: Antibacterial activity against Bacillus typhi after 24 hrs by micro broth dilution method; assay type: functional, Salmonella enterica subsp. enterica serovar Typhi; settings: Salmonella enterica
Candida albicans = experiment: Antifungal activity against Candida albicans after 24 hrs by two fold serial dilution based spectrophotometric analysis; assay type: functional
Pichia norvegensis = experiment: Antifungal activity against Candida mycoderma after 24 hrs by two fold serial dilution based spectrophotometric analysis; assay type: functional
Cyberlindnera jadinii = experiment: Antifungal activity against Candida utilis after 24 hrs by two fold serial dilution based spectrophotometric analysis; assay type: functional; settings: Williopsis jadinii
Aspergillus flavus = experiment: Antifungal activity against Aspergillus flavus after 24 hrs by two fold serial dilution based spectrophotometric analysis; assay type: functional
Saccharomyces cerevisiae = experiment: Antifungal activity against Beer yeast after 24 hrs by two fold serial dilution based spectrophotometric analysis; assay type: functional

SMILES	MIC (Staphylococcus aureus [1])	MIC (Staphylococcus aureus [2])	MIC (Bacillus subtilis)	MIC (Micrococcus luteus)	MIC (Escherichia coli [3])	MIC (Escherichia coli [4])	MIC (Shigella dysenteriae)	MIC (Pseudomonas aeruginosa)	MIC (Bacillus)	MIC (Salmonella typhi)	MIC (Candida albicans)	MIC (Pichia norvegensis)	MIC (Cyberlindnera jadinii)	MIC (Aspergillus flavus)	MIC (Saccharomyces cerevisiae)
CCOc1ccc2c(c1)sc1nc(-c3ccccc3)c(COCCCCCCCCCCBr)n12	> 512 µg/mL	> 512 µg/mL	> 512 µg/mL	> 512 µg/mL	> 512 µg/mL	> 512 µg/mL	> 512 µg/mL	16 µg/mL (≈ 29.4 µM)	> 512 µg/mL	256 µg/mL (≈ 471 µM)	> 512 µg/mL	> 512 µg/mL	> 512 µg/mL	512 µg/mL (≈ 942 µM)	> 512 µg/mL
CCn1cc(C(=O)O)c(=O)c2cc(F)c(N3CCNCC3)cc21 [NORFLOXACIN]	8 µg/mL (≈ 25.1 µM)	2 µg/mL (≈ 6.26 µM)	4 µg/mL (≈ 12.5 µM)	2 µg/mL (≈ 6.26 µM)	1 µg/mL (≈ 3.13 µM)	1 µg/mL (≈ 3.13 µM)	16 µg/mL (≈ 50.1 µM)	16 µg/mL (≈ 50.1 µM)	8 µg/mL (≈ 25.1 µM)	4 µg/mL (≈ 12.5 µM)	–	–	–	–	–
c1ccc(-c2nc3sc4ccccc4n3c2COCCCCCCCCCCn2cncn2)cc1	16 µg/mL (≈ 32.8 µM)	32 µg/mL (≈ 65.6 µM)	16 µg/mL (≈ 32.8 µM)	64 µg/mL (≈ 131 µM)	32 µg/mL (≈ 65.6 µM)	64 µg/mL (≈ 131 µM)	16 µg/mL (≈ 32.8 µM)	32 µg/mL (≈ 65.6 µM)	128 µg/mL (≈ 262 µM)	16 µg/mL (≈ 32.8 µM)	16 µg/mL (≈ 32.8 µM)	16 µg/mL (≈ 32.8 µM)	> 512 µg/mL	16 µg/mL (≈ 32.8 µM)	16 µg/mL (≈ 32.8 µM)
Cc1ncc([N+](=O)[O-])n1CCCCCOCc1c(-c2ccccc2)nc2sc3ccccc3n12	8 µg/mL (≈ 16.8 µM)	4 µg/mL (≈ 8.41 µM)	16 µg/mL (≈ 33.6 µM)	64 µg/mL (≈ 135 µM)	8 µg/mL (≈ 16.8 µM)	2 µg/mL (≈ 4.21 µM)	16 µg/mL (≈ 33.6 µM)	8 µg/mL (≈ 16.8 µM)	16 µg/mL (≈ 33.6 µM)	32 µg/mL (≈ 67.3 µM)	8 µg/mL (≈ 16.8 µM)	64 µg/mL (≈ 135 µM)	128 µg/mL (≈ 269 µM)	16 µg/mL (≈ 33.6 µM)	> 512 µg/mL
CCOc1ccc2c(c1)sc1nc(-c3ccccc3)c(COCCCCCCCCCCn3cncn3)n12	64 µg/mL (≈ 120 µM)	8 µg/mL (≈ 15 µM)	32 µg/mL (≈ 60.2 µM)	64 µg/mL (≈ 120 µM)	32 µg/mL (≈ 60.2 µM)	64 µg/mL (≈ 120 µM)	64 µg/mL (≈ 120 µM)	8 µg/mL (≈ 15 µM)	64 µg/mL (≈ 120 µM)	128 µg/mL (≈ 241 µM)	> 512 µg/mL	> 512 µg/mL	> 512 µg/mL	> 512 µg/mL	128 µg/mL (≈ 241 µM)
BrCCCCCCCCCCOCc1c(-c2ccccc2)nc2sc3ccccc3n12	64 µg/mL (≈ 128 µM)	32 µg/mL (≈ 64.1 µM)	8 µg/mL (≈ 16 µM)	32 µg/mL (≈ 64.1 µM)	16 µg/mL (≈ 32 µM)	128 µg/mL (≈ 256 µM)	64 µg/mL (≈ 128 µM)	16 µg/mL (≈ 32 µM)	16 µg/mL (≈ 32 µM)	128 µg/mL (≈ 256 µM)	4 µg/mL (≈ 8.01 µM)	64 µg/mL (≈ 128 µM)	64 µg/mL (≈ 128 µM)	16 µg/mL (≈ 32 µM)	64 µg/mL (≈ 128 µM)
CCOc1ccc2c(c1)sc1nc(-c3ccccc3)c(COCCCCCCCCCCn3cnc([N+](=O)[O-])c3)n12	32 µg/mL (≈ 55.6 µM)	128 µg/mL (≈ 222 µM)	32 µg/mL (≈ 55.6 µM)	512 µg/mL (≈ 889 µM)	64 µg/mL (≈ 111 µM)	512 µg/mL (≈ 889 µM)	8 µg/mL (≈ 13.9 µM)	32 µg/mL (≈ 55.6 µM)	256 µg/mL (≈ 445 µM)	32 µg/mL (≈ 55.6 µM)	256 µg/mL (≈ 445 µM)	128 µg/mL (≈ 222 µM)	512 µg/mL (≈ 889 µM)	64 µg/mL (≈ 111 µM)	256 µg/mL (≈ 445 µM)
BrCCCCCOCc1c(-c2ccccc2)nc2sc3ccccc3n12	16 µg/mL (≈ 37.3 µM)	32 µg/mL (≈ 74.5 µM)	4 µg/mL (≈ 9.32 µM)	256 µg/mL (≈ 596 µM)	16 µg/mL (≈ 37.3 µM)	16 µg/mL (≈ 37.3 µM)	16 µg/mL (≈ 37.3 µM)	16 µg/mL (≈ 37.3 µM)	16 µg/mL (≈ 37.3 µM)	128 µg/mL (≈ 298 µM)	4 µg/mL (≈ 9.32 µM)	64 µg/mL (≈ 149 µM)	64 µg/mL (≈ 149 µM)	16 µg/mL (≈ 37.3 µM)	16 µg/mL (≈ 37.3 µM)
OC(Cn1cncn1)(Cn1cncn1)c1ccc(F)cc1F [FLUCONAZOLE]	–	–	–	–	–	–	–	–	–	–	1 µg/mL (≈ 3.27 µM)	4 µg/mL (≈ 13.1 µM)	8 µg/mL (≈ 26.1 µM)	256 µg/mL (≈ 836 µM)	16 µg/mL (≈ 52.2 µM)
CCOc1ccc2c(c1)sc1nc(-c3ccccc3)c(COCCCn3cnc([N+](=O)[O-])c3)n12	512 µg/mL (≈ 1070 µM)	128 µg/mL (≈ 268 µM)	256 µg/mL (≈ 536 µM)	256 µg/mL (≈ 536 µM)	512 µg/mL (≈ 1070 µM)	256 µg/mL (≈ 536 µM)	256 µg/mL (≈ 536 µM)	512 µg/mL (≈ 1070 µM)	512 µg/mL (≈ 1070 µM)	256 µg/mL (≈ 536 µM)	16 µg/mL (≈ 33.5 µM)	32 µg/mL (≈ 67 µM)	128 µg/mL (≈ 268 µM)	32 µg/mL (≈ 67 µM)	> 512 µg/mL
CCOc1ccc2c(c1)sc1nc(-c3ccccc3)c(COCCCCCn3c([N+](=O)[O-])cnc3C)n12	–	128 µg/mL (≈ 246 µM)	512 µg/mL (≈ 985 µM)	256 µg/mL (≈ 493 µM)	512 µg/mL (≈ 985 µM)	> 512 µg/mL	–	512 µg/mL (≈ 985 µM)	> 512 µg/mL	–	32 µg/mL (≈ 61.6 µM)	128 µg/mL (≈ 246 µM)	256 µg/mL (≈ 493 µM)	128 µg/mL (≈ 246 µM)	128 µg/mL (≈ 246 µM)
